This is an account of results in US20160368943A1, “SUBSTITUTED PURINE COMPOUNDS” (EPIZYME, INC., priority 2013, published 2016).

Series [1] is described as follows: Liver microsome stability, dog. Format: in vitro ADME. The procedure:
The final incubation volume was 50 μL. Control incubations were included for each species where 0.1 M phosphate buffer pH 7.4 was added instead of NADPH (minus NADPH). Two control compounds were included for each species. […] The control (minus NADPH) was incubated for 45 minutes only. The reactions were stopped by transferring 25 μL of incubate to 50 μL methanol at the appropriate time points. The incubation plates were centrifuged at 2,500 rpm for 20 minutes at 4° C. to aid protein precipitation. Experimental half-lives were transformed to the corresponding intrinsic clearance values and subsequently scaled to predicted in vivo clearance values, using the well-stirred model as previously described (Houston, Biochemical Pharmacology 47(9): 1469-1479, 1994; Obach, Drug Metabolism and Disposition 27(11): 1350-1359, 1999), with appropriate species-specific scaling factors (Barter et al., Current Drug Metabolism 8(1): 33-45, 2007).
(Microsomes from liver hold many membrane-bound enzymes, among them those of drug oxidation.)

A short description of series [2]: Hepatocyte stability, mouse. Format: in vitro ADME, CD-1 mouse. The procedure: Human, Beagle dog, Sprague-Dawley rat, and CD-1 mouse cryopreserved hepatocytes were obtained from XenoTech and stored at −150° C. until use. The hepatocytes were thawed and prepared according to the vendor's instructions, pooled into Krebs Henseleit buffer (KHB, pH 7.4), and kept on ice prior to initiating an experiment. […] The reaction mixture was incubated in a shaking water bath at 37° C. Aliquots of the incubation solutions were sampled at 0, 15, 30, 60, and 120 minutes. The reaction was immediately terminated by the addition of three volumes of ice-cold acetonitrile containing 0.1% formic acid and internal standards. After centrifugation at 1640×g for 10 minutes, the supernatants were transferred into HPLC vials, and the test compound was analyzed by LC-MS/MS. Positive controls, testosterone (20 μM) and 7-hydroxycoumarin (100 μM), were performed in parallel to confirm the enzyme activities of the hepatocytes used.
Experimental half-lives were transformed to the corresponding intrinsic clearance values and subsequently scaled to predicted in vivo clearance values, using the well-stirred model as previously described (Houston, Biochemical Pharmacology 47(9): 1469-1479, 1994; Obach, Drug Metabolism and Disposition 27(11): 1350-1359, 1999), with appropriate species-specific scaling factors (Barter et al., Current Drug Metabolism 8(1): 33-45, 2007).

A short description of series [3]: Plasma protein binding by equilibrium dialysis, mouse. Conditions: male, CD-1, pH 7.4, read-out: Plasma free fraction. Format: in vitro ADME, CD-1 mouse. On the procedure:
Plasma protein binding was assessed by equilibrium dialysis, utilizing the HT-dialysis cell format with a cellulose semi permeable membrane (molecular weight cut off of 5000 Da). Plasma was warmed to 37° C. and adjusted to pH 7.4 before use. Male Sprague-Dawley rat, male Beagle dog, male CD-1 mouse and mixed sex human plasma was used for the studies. A 5 μM test compound solution was prepared in isotonic phosphate buffer and rat, dog, mouse and human plasma (final DMSO concentration of 0.5%). The plasma-containing solution was introduced to one side of the membrane, and the plasma-free on the other. Incubations were performed for 2-16 hours in duplicate in order to allow the compound to reach equilibrium. Haloperidol was included as the control compound for each species. At the end of the equilibration time the cells were emptied. Following protein precipitation, the samples were centrifuged and analyzed by LC-MS/MS. The samples from the protein containing compartment were quantified using calibration standards prepared in plasma and the protein free compartments were quantified using calibration standards prepared in dialysis buffer.
In general terms: In equilibrium dialysis only unbound substance equilibrates across the membrane.

Series [4] is described as follows: Plasma stability, mouse. The series is classed as in vitro ADME, CD-1 mouse. The conditions noted are these: CD-1, pooled plasma, 37° C., read-out: Half-life in ex vivo blood plasma. The text has this: (§1) Samples were quenched in methanol and analyzed by LC-MS/MS analysis.
The nature of series [5]: Plasma stability, rat. The series is classed as in vitro ADME. Conditions: Sprague Dawley, pooled plasma, 37° C., read-out: Half-life in ex vivo blood plasma.
Excerpt: as §1

The nature of series [6]: Plasma stability, human. Conditions: pooled plasma, 37° C., read-out: Half-life in ex vivo blood plasma. The series is classed as in vitro ADME.
Excerpt: as §1

The nature of series [7]: Metabolite profiling in liver microsomes with NADPH and UDPGA, mouse. Format: in vitro ADME. Conditions: Compound A 10 μM, 20 min. The procedure: (§2) Compound A was incubated with liver microsomes of various species (mouse, rat, dog or human). […] For all liver microsomal incubations, samples were taken at 0 and 20 minutes. All samples were quenched by using acetonitrile/methanol solution and analyzed using an LC-MS/MS Q-Trap system (AB Sciex, Framingham, Mass.).
(§3) The corresponding product ion tandem mass spectra of Compound A and its metabolites were obtained by using enhanced product ion (EPI) scans during positive ion electrospray. The possible chemical structures of the metabolites were deduced based on their MS1 and MS2 spectra.

Series [8] can be described thus: Metabolite profiling in liver microsomes with NADPH and UDPGA, human. Format: in vitro ADME. Conditions: Compound A 10 μM, 20 min. The procedure:
as §2, §3

`CC(C)N(C[C@H]1O[C@@H](n2cnc3c(N)ncnc32)[C@H](O)[C@@H]1O)[C@H]1C[C@@H](CCc2nc3cc(C(C)(C)C)ccc3[nH]2)C1` [Compound A, (2R,3R,4S,5R)-2-(6-amino-9H-purin-9-yl)-5-((((1r,3S)-3-(2-(5-(tert-butyl)-1H-benzo[d]imidazol-2-yl)ethyl)cyclobutyl)(isopropyl)amino)methyl)tetrahydrofuran-3,4-diol] came in with a microsomal CLint at 3 μM in series [1] (liver microsomes, pH 7.4, NADPH, 3 μM) of 39 µL/min/mg. For the same compound, in series [1] (well-stirred model), the “Scaled Hepatic CL from liver microsomes” value turned out to be 20 mL/min/kg. Moreover, the hepatocyte CLint at 3 μM in series [2] (CD-1, mouse, cryopreserved hepatocytes in suspension, pH 7.4, mouse, 3 μM) was less than 4 µL/min/1e6 cells. Also, the “Scaled Hepatic CL from hepatocytes” value in series [2] (mouse) was 26 mL/min/kg. Also, the “Hepatocyte CLint” value in series [2] (mouse, 3 μM) worked out at 3.5 uL/min/million cells. For the same compound, in series [3], the fraction unbound at 5 μM stood at 0.138. Moreover, the half-life at 1 μM in series [4], in series [5] and in series [6] was more than 2 h in each case. In addition, the entries for the “Abundance based on UV spectra” value in series [7] and in series [8] were 25.4% and 59%, respectively.

Usually microsomal CLint stands for a measure of how fast metabolising enzymes remove a compound, apart from limits set by blood flow. Broadly, the hepatocyte CLint is a measure of how fast metabolising enzymes remove a compound, apart from limits set by blood flow. Higher therefore signals rapid turnover. What is called half-life is the time needed for the level to fall by half in the phase considered.
